{"source": "PubChem BioAssay AID687005", "about": "(Broad Institute, 2013)", "assay": "viability loss in HEK293T cells – cell-based, ATP luminescence, cherry-pick samples, cytotoxicity control, dose response (AID 687005)", "details": "HEK293T viability, ATP luminescence (CellTiter-Glo), 48 h", "note": "Inconclusive results are not listed. Active and inactive are the calls of the source.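 How the source made its calls: active means Compounds that reduce signal, with fitted half-maximal dose at or under twice the top valid tested dose; inconclusive means Poor fit, or flat curve losing 30 to 70% of signal; inactive means Potency past limit, flat within 30%, or opposite direction.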"}
{"smiles": "CCCNC(=O)C[C@@H]1CC[C@@H]2[C@@H](COc3ccc(NC(=O)CCC)cc3C(=O)N2C)O1", "values": [{"measurement": "activity change, negative = cytotoxicity", "setting": "at 23.5 µM (top of the series)", "value": "9.04% (inactive)"}]}
{"smiles": "COC(=O)C1=C(C)N(Cc2ccc(F)cc2)C(=S)NC1c1cccc(Cl)c1", "note": "(stereo not drawn)", "values": [{"measurement": "activity change, negative = cytotoxicity", "setting": "at 26 µM (top of the series)", "value": "-1.12% (inactive)"}]}
{"smiles": "Cc1noc(C)c1S(=O)(=O)Nc1ccc2c(c1)CC(=O)N([C@H](C)CO)C[C@H](C)[C@H](CN(C)S(=O)(=O)c1cccs1)O2", "values": [{"measurement": "activity change, negative = cytotoxicity", "setting": "at 23.5 µM (top of the series)", "value": "-4.72% (inactive)"}]}
{"smiles": "CCC(=O)Nc1ccc2c(c1)C(=O)N(C)C[C@@H](OC)[C@H](C)CN[C@@H](C)CO2", "values": [{"measurement": "activity change, negative = cytotoxicity", "setting": "at 26 µM (top of the series)", "value": "4.18% (inactive)"}]}
{"smiles": "C[C@@H]1CN([C@H](C)CO)C(=O)Cc2cc(NC(=O)CCCCCC(=O)Nc3ccccc3N)ccc2O[C@H]1CN(C)Cc1ccc2c(c1)OCO2", "values": [{"measurement": "activity change, negative = cytotoxicity", "setting": "at 21 µM (top of the series)", "value": "-2.18% (inactive)"}]}
{"smiles": "CCOC(=O)NC(=S)Nc1ccc(C(C)(C)C)cc1Br", "values": [{"measurement": "activity change, negative = cytotoxicity", "setting": "at 26 µM (top of the series)", "value": "9.89% (inactive)"}]}
{"smiles": "CC=Cc1ccc2n(c1=O)C[C@H]1[C@H](CO)[C@@H](C(=O)N3CCOCC3)N(CC3CC3)[C@@H]21", "note": "(mixture of isomers)", "values": [{"measurement": "activity change, negative = cytotoxicity", "setting": "at 26 µM (top of the series)", "value": "2.31% (inactive)"}]}
{"smiles": "C[C@H](O)C#Cc1ccc2c(c1)O[C@H](CN(C)Cc1ccncc1)[C@H](C)CN([C@H](C)CO)S2(=O)=O", "values": [{"measurement": "activity change, negative = cytotoxicity", "setting": "at 26 µM (top of the series)", "value": "29.2% (inactive)"}]}
{"smiles": "CC(C)NC(=O)Nc1ccc2c(c1)C(=O)N([C@@H](C)CO)C[C@H](C)[C@@H](CN(C)Cc1ccc3c(c1)OCO3)OCCCC[C@@H](C)O2", "values": [{"measurement": "activity change, negative = cytotoxicity", "setting": "at 26 µM (top of the series)", "value": "-28.1% (inactive)"}]}
{"smiles": "COC(=O)N(C)C[C@H]1OCc2cn(nn2)CCCC(=O)N([C@H](C)CO)C[C@@H]1C", "values": [{"measurement": "activity change, negative = cytotoxicity", "setting": "at 26 µM (top of the series)", "value": "-11% (inactive)"}]}
{"smiles": "O=C(NCc1ccc(F)cc1)C1C2C=CC3(CN(Cc4cccnc4)C(=O)C13)O2", "note": "(stereo not drawn)", "values": [{"measurement": "activity change, negative = cytotoxicity", "setting": "at 26 µM (top of the series)", "value": "9.79% (inactive)"}]}
{"smiles": "Cc1cccc(C)c1NC(=S)NN(Cc1ccccc1)c1ccccc1", "values": [{"measurement": "activity change, negative = cytotoxicity", "setting": "at 26 µM (top of the series)", "value": "15.7% (inactive)"}]}
{"smiles": "CCC(=O)N[C@H]1C=C[C@H](CC(=O)NCC2CCCCC2)O[C@@H]1CO", "values": [{"measurement": "activity change, negative = cytotoxicity", "setting": "at 26 µM (top of the series)", "value": "35.4% (inactive)"}]}
{"smiles": "Cc1cc(C(=O)Nc2cccc3c2O[C@@H](CN(C)S(=O)(=O)c2ccccc2)[C@@H](C)CN([C@@H](C)CO)C3=O)n(C)n1", "values": [{"measurement": "activity change, negative = cytotoxicity", "setting": "at 23.5 µM (top of the series)", "value": "-20.3% (inactive)"}]}
{"smiles": "COc1ccc(S(=O)(=O)Nc2ccc3c(c2)C(=O)N([C@@H](C)CO)C[C@H](C)[C@@H](CN(C)C)OCCCC[C@H](C)O3)cc1", "values": [{"measurement": "activity change, negative = cytotoxicity", "setting": "at 26 µM (top of the series)", "value": "-9.62% (inactive)"}]}
{"smiles": "COCC(=O)Nc1ccc2c(c1)C(=O)N(C)C[C@@H](OC)[C@H](C)CN(Cc1ccccc1)[C@@H](C)CO2", "values": [{"measurement": "activity change, negative = cytotoxicity", "setting": "at 26 µM (top of the series)", "value": "7.91% (inactive)"}]}
{"smiles": "C[C@H]1CN([C@@H](C)CO)C(=O)c2cccc(NS(C)(=O)=O)c2O[C@@H]1CN(C)Cc1ccc(-c2ccccc2)cc1", "values": [{"measurement": "activity change, negative = cytotoxicity", "setting": "at 26 µM (top of the series)", "value": "-8.66% (inactive)"}]}
{"smiles": "O=C(C[C@@H]1CC[C@H]2[C@@H](COC[C@@H](O)CN2C(=O)Nc2ccc(Cl)cc2)O1)NCCc1ccncc1", "values": [{"measurement": "activity change, negative = cytotoxicity", "setting": "at 26 µM (top of the series)", "value": "-9.46% (inactive)"}]}
{"smiles": "CC(C)NC(=O)Nc1ccc2c(c1)C(=O)N([C@@H](C)CO)C[C@H](C)[C@@H](CN(C)S(=O)(=O)c1cccs1)OCCCC[C@H](C)O2", "values": [{"measurement": "activity change, negative = cytotoxicity", "setting": "at 26 µM (top of the series)", "value": "-17.5% (inactive)"}]}
{"smiles": "Cc1cc(C)c(N2CCCC2C(=O)Nc2cccc(C(F)(F)F)c2)c(C)c1", "note": "(stereo not drawn)", "values": [{"measurement": "activity change, negative = cytotoxicity", "setting": "at 35 µM (top of the series)", "value": "-7.11% (inactive)"}]}
{"smiles": "CN1CCN(C(=O)CN(c2ccc(I)cc2)S(=O)(=O)c2ccccc2)CC1", "values": [{"measurement": "activity change, negative = cytotoxicity", "setting": "at 18 µM (top of the series)", "value": "45.2% (inactive)"}]}
{"smiles": "O=C(NC(=S)Nc1ccccc1N1CCCC1)c1ccc([N+](=O)[O-])cc1", "values": [{"measurement": "activity change, negative = cytotoxicity", "setting": "at 26 µM (top of the series)", "value": "-8.4% (inactive)"}]}
{"smiles": "S=C(NCc1ccccc1)NCC1COc2ccccc2O1", "note": "(stereo not drawn)", "values": [{"measurement": "activity change, negative = cytotoxicity", "setting": "at 26 µM (top of the series)", "value": "-15.9% (inactive)"}]}
{"smiles": "O=C(NCCc1ccccc1)[C@H]1[C@H](CO)[C@H]2Cn3c(cccc3=O)[C@@H]1N2C(=O)C1CCC1", "values": [{"measurement": "activity change, negative = cytotoxicity", "setting": "at 26 µM (top of the series)", "value": "7.71% (inactive)"}]}
{"smiles": "Fc1cccc(CCN2C(=S)NC[C@@H]2Cc2ccccc2)c1", "values": [{"measurement": "activity change, negative = cytotoxicity", "setting": "at 26 µM (top of the series)", "value": "-28.1% (inactive)"}]}
{"smiles": "COc1cccc(-c2cn(CC[C@@H]3CC[C@H](NC(C)=O)[C@@H](CO)O3)nn2)c1", "values": [{"measurement": "activity change, negative = cytotoxicity", "setting": "at 26 µM (top of the series)", "value": "8.26% (inactive)"}]}
{"smiles": "CNC[C@@H]1OCCCC[C@H](C)Oc2ccc(NC(=O)Nc3ccc(F)cc3)cc2C(=O)N([C@@H](C)CO)C[C@H]1C", "values": [{"measurement": "activity change, negative = cytotoxicity", "setting": "at 26 µM (top of the series)", "value": "28.7% (inactive)"}]}
{"smiles": "COc1ccc(-n2ncc3c(SCC(=O)OC(C)C)ncnc32)cc1", "values": [{"measurement": "activity change, negative = cytotoxicity", "setting": "at 26 µM (top of the series)", "value": "-5.94% (inactive)"}]}
{"smiles": "CC(C)NC(=O)Nc1ccc2c(c1)CC(=O)N([C@H](C)CO)C[C@H](C)[C@@H](CN(C)C(=O)Nc1ccc3c(c1)OCO3)O2", "values": [{"measurement": "activity change, negative = cytotoxicity", "setting": "at 26 µM (top of the series)", "value": "31.9% (inactive)"}]}
{"smiles": "O=C(C[C@H]1C[C@H]2c3cc(NC(=O)C4CCC4)ccc3O[C@H]2[C@@H](CO)O1)NCc1cccc(F)c1", "values": [{"measurement": "activity change, negative = cytotoxicity", "setting": "at 23.5 µM (top of the series)", "value": "-5.36% (inactive)"}]}
{"smiles": "C[C@@H]1CN([C@@H](C)CO)C(=O)c2cc(NC(=O)C3CC3)ccc2O[C@H]1CN(C)Cc1ccc2c(c1)OCO2", "values": [{"measurement": "activity change, negative = cytotoxicity", "setting": "at 26 µM (top of the series)", "value": "9.22% (inactive)"}]}
{"smiles": "CC(C)CC#Cc1cnc2c(c1)C(=O)N([C@@H](C)CO)C[C@@H](C)[C@@H](CN(C)C(=O)c1cccc(F)c1)O2", "values": [{"measurement": "activity change, negative = cytotoxicity", "setting": "at 26 µM (top of the series)", "value": "-19.3% (inactive)"}]}
{"smiles": "C[C@H](CO)N1C[C@H](C)[C@@H](CN(C)C(=O)C2CCOCC2)Oc2ncc(C#CCc3ccccc3)cc2C1=O", "values": [{"measurement": "activity change, negative = cytotoxicity", "setting": "at 26 µM (top of the series)", "value": "6.08% (inactive)"}]}
{"smiles": "COc1ccc(CN(C)C[C@@H]2Oc3ccc(NC(=O)C4CC4)cc3C(=O)N([C@@H](C)CO)C[C@H]2C)cc1", "values": [{"measurement": "activity change, negative = cytotoxicity", "setting": "at 23.5 µM (top of the series)", "value": "8.64% (inactive)"}]}
{"smiles": "COCC#Cc1cnc2c(c1)C(=O)N([C@@H](C)CO)C[C@@H](C)[C@@H](CN(C)C(=O)C1CC1)O2", "values": [{"measurement": "activity change, negative = cytotoxicity", "setting": "at 26 µM (top of the series)", "value": "-14.4% (inactive)"}]}
{"smiles": "CCCNC(=O)C[C@H]1CC[C@H]2[C@@H](COC[C@@H](O)CN2S(=O)(=O)c2ccc(Oc3ccccc3)cc2)O1", "values": [{"measurement": "activity change, negative = cytotoxicity", "setting": "at 26 µM (top of the series)", "value": "-8.05% (inactive)"}]}
{"smiles": "O=C(O)C[C@@H]1CC[C@@H]2[C@H](COC[C@H](O)CN2S(=O)(=O)c2ccc(F)cc2)O1", "values": [{"measurement": "activity change, negative = cytotoxicity", "setting": "at 26 µM (top of the series)", "value": "-25.9% (inactive)"}]}
{"smiles": "CC(=O)c1sc(NC(=O)c2cc(-c3ccccc3)nn2-c2ccccc2)nc1C", "values": [{"measurement": "activity change, negative = cytotoxicity", "setting": "at 26 µM (top of the series)", "value": "38.5% (inactive)"}]}
{"smiles": "COCCNC(=O)C[C@@H]1C[C@@H]2c3cc(NC(=O)C4CCOCC4)ccc3O[C@@H]2[C@@H](CO)O1", "values": [{"measurement": "activity change, negative = cytotoxicity", "setting": "at 26 µM (top of the series)", "value": "-3.7% (inactive)"}]}
{"smiles": "O=S1(=O)CCC(N=Cc2cc(Br)ccc2O)C1", "note": "(stereo not drawn)", "values": [{"measurement": "activity change, negative = cytotoxicity", "setting": "at 26 µM (top of the series)", "value": "37.7% (inactive)"}]}
{"smiles": "CNC(=O)C[C@H]1CC[C@H]2[C@@H](COc3ccc(NC(=O)Nc4cccc(C#N)c4)cc3C(=O)N2C)O1", "values": [{"measurement": "activity change, negative = cytotoxicity", "setting": "at 26 µM (top of the series)", "value": "23.1% (inactive)"}]}
{"smiles": "C[C@H](NC(=O)C[C@@H]1C=C[C@H](NC(=O)CN2CCOCC2)[C@@H](CO)O1)c1ccccc1", "values": [{"measurement": "activity change, negative = cytotoxicity", "setting": "at 26 µM (top of the series)", "value": "18.6% (inactive)"}]}
{"smiles": "COc1cccc(S(=O)(=O)Nc2ccc3c(c2)[C@H]2C[C@H](CC(=O)N(C)C)O[C@@H](CO)[C@H]2O3)c1", "values": [{"measurement": "activity change, negative = cytotoxicity", "setting": "at 26 µM (top of the series)", "value": "-5.49% (inactive)"}]}
{"smiles": "COCCNC(=O)C[C@@H]1C[C@H]2c3cc(NC(=O)C4CCOCC4)ccc3O[C@H]2[C@H](CO)O1", "values": [{"measurement": "activity change, negative = cytotoxicity", "setting": "at 23.5 µM (top of the series)", "value": "25.9% (inactive)"}]}
{"smiles": "COc1ccc(CN(C)C[C@@H]2Oc3c(NC(=O)Nc4cccc5ccccc45)cccc3C(=O)N([C@@H](C)CO)C[C@@H]2C)cc1", "values": [{"measurement": "activity change, negative = cytotoxicity", "setting": "at 26 µM (top of the series)", "value": "-9.75% (inactive)"}]}
{"smiles": "CCCNC(=O)N1C[C@@H]2[C@H](c3ccccc31)[C@H](CO)N2Cc1ccc(OC)cc1", "values": [{"measurement": "activity change, negative = cytotoxicity", "setting": "at 26 µM (top of the series)", "value": "2.66% (inactive)"}]}
{"smiles": "Cc1noc(C)c1NC(=O)Nc1cccc2c1O[C@H](CN(C)S(=O)(=O)c1cn(C)cn1)[C@H](C)CN([C@H](C)CO)C2=O", "values": [{"measurement": "activity change, negative = cytotoxicity", "setting": "at 26 µM (top of the series)", "value": "-29.5% (inactive)"}]}
{"smiles": "CCC(C(=O)Nc1c(C)cc(C)cc1C)N1CCCCCC1", "note": "(stereo not drawn)", "values": [{"measurement": "activity change, negative = cytotoxicity", "setting": "at 26 µM (top of the series)", "value": "18.8% (inactive)"}]}
